Values after ≈ are worked out from the molar mass of the structure shown.
Legend:
[1] = Approximate solubility in different solvents at approximate 23° C.; format: physicochemical; conditions: thermodynamic from solid
[2] = Aqueous solubility in solvents with different pH (excess solute equilibrated at 20° C., UV spectrometry); format: physicochemical; conditions: at least 24 hours
Method: Further solubility investigations were performed in function of pH. […] An excess of the solute was equilibrated with the solvent at 20° C. for at least 24 hours. After removing the undissolved compound, the concentration in solution was determined using UV spectrometry.
Aqueous solubilities of Form B were measured in solvents with different pH. An excess of the solute was equilibrated with the solvent at 20° C. for at least 24 hours. After removing the undissolved compound, the concentration in solution was determined using UV spectrometry.
Aqueous solubilities of Form K were measured in solvents with different pH. An excess of the solute was equilibrated with the solvent at 20° C. for at least 48 hours. After removing the undissolved compound, the concentration in solution was determined using UV spectrometry.

[3] = Solubility in function of HPβCD (hydroxpropyl-β-cyclodextrin); format: physicochemical; conditions: 2 days at 20° C.
Method: An excess of product was equilibrated with the solvent during 2 days at 20° C. After removing the undissolved compound, the concentration in solution was determined using UV spectrometry.

[4] = Thermogravimetry of Form A, before and after Adsorption/Desorption tests, and at 25° C. under dry nitrogen; format: physicochemical
Method: The TG curve was recorded on a TA Instrument Hi-Res TGA 2950 thermogravimeter at the following conditions:
initial temperature: room temperature
final condition: 300° C. or <80[(w/w) %]
The loss of weight at temperatures up to 80° C. is mainly due to the evaporation of solvent (water) present in the sample. The loss of weight at temperatures above 80° C. is mainly due to the evaporation of solvent (ethanolate) present in the sample.
The loss of weight at 25° C. after 10 hours was around 0.6%. This was due to the evaporation of solvent.

[5] = Adsorption-Desorption tests (vapor sorption, weight change with respect to atmospheric humidity, 25° C.); format: physicochemical
Method: drying temperature: 40° C.
equilibrium: ≤0.05% in 5 min. or 60 min.
data interval: 0.05% or 2 min.
At the drying step about 0.6% weight loss was registered.
About 21 mg of Form K were transferred into a VTI vapor sorption analyzer model SGA100 and the weight change with respect to the atmospheric humidity was recorded at the following conditions:
drying temperature: 30° C.
data interval: 0.05% or 2.0 min.
Form K is hygroscopic. […] Form K adsorbed up to 1.5% water at high relative humidity.
A different study of the adsorption and desorption of water by Form K at 25° C. at different conditions of relative humidity was investigated on an amount of about 18 mg of the mesylate solvate. The weight change as a function of relative humidity was registered.

[6] = Adsorption-Desorption Hydratation Tests; format: physicochemical; conditions: 25° C., RH cycle repeated 11 times
Method: equilibrium: ≤0.0005% in 5 min. or 90 min.
data interval: 0.05% or 2 min
cycle RH (%) adsorption/desorption: 5.95 repeat the cycle 11 times
At the end of this test a loss of weight of 5.2% was registered. […] The ADS/DES hydratation test curves are collected in FIG. 19.

[7] = Randomized, placebo-controlled, double-blind, multiple dose escalation trial: safety, tolerability and pharmacokinetics after oral administration

CC(C)CN(C[C@@H](O)[C@H](Cc1ccccc1)NC(=O)O[C@H]1CO[C@H]2OCC[C@H]21)S(=O)(=O)c1ccc(N)cc1 [Form A, (3R,3aS,6aR)-hexahydrofuro [2,3-b] furan-3-yl (1S,2R)-3-[[(4-aminophenyl)sulfonyl] (isobutyl)amino]-1-benzyl-2-hydroxypropylcarbamate]
solubility ([1]; organic solvent or mixture, 1-Methoxy-2-propanol): 160000 to 213000 µg/mL (≈ 292 to 389 mM) | solubility ([1]; organic solvent or mixture, 2-Propanol): < 3400 µg/mL | solubility ([1]; organic solvent or mixture, Acetone): 106000 to 211000 µg/mL (≈ 194 to 385 mM) | solubility ([1]; organic solvent or mixture, Dichloromethane): 105000 to 209000 µg/mL (≈ 192 to 382 mM) | solubility ([1]; organic solvent or mixture, Ethanol absolute): < 3400 µg/mL | solubility ([1]; organic solvent or mixture, Ethylacetate): 71000 to 107000 µg/mL (≈ 130 to 195 mM) | solubility ([1]; organic solvent or mixture, Ethylmethylketone): 102000 to 204000 µg/mL (≈ 186 to 372 mM) | solubility ([1]; organic solvent or mixture, Heptane): < 3400 µg/mL | solubility ([1]; organic solvent or mixture, Isopropylether): < 3400 µg/mL | solubility ([1]; organic solvent or mixture, Methacyanate): > 200000 µg/mL | solubility ([1]; organic solvent or mixture, Methanol): < 3400 µg/mL | solubility ([1]; organic solvent or mixture, Tetrahydrofurane): 102000 to 203000 µg/mL (≈ 186 to 371 mM) | solubility ([1]; organic solvent or mixture, Toluene): < 3500 µg/mL | solubility ([1]; water): < 3500 µg/mL | solubility ([2]; Water (pH 5.9)): 16 (pH 5.9) mg/100 ml solution | solubility thermodynamic ([2]; pH 0.2, aqueous buffer, 1.0N HCl (pH 0.2)): 6200 µg/mL (≈ 11.3 mM) | solubility thermodynamic ([2]; pH 1.1, aqueous buffer, 0.1N HCl (pH 1.1)): 830 µg/mL (≈ 1.52 mM) | solubility thermodynamic ([2]; pH 2, aqueous buffer, Buffer pH 2 (citrate/HCl) (pH 2.0)): 180 µg/mL (≈ 0.329 mM) | solubility thermodynamic ([2]; pH 2.1, aqueous buffer, 0.01N HCl (pH 2.1)): 180 µg/mL (≈ 0.329 mM) | solubility thermodynamic ([2]; pH 3, aqueous buffer, Buffer pH 3 (citrate/HCl) (pH 3.0)): 100 µg/mL (≈ 0.183 mM) | solubility thermodynamic ([2]; pH 4, aqueous buffer, Buffer pH 4 (citrate/HCl) (pH 4.0)): 90 µg/mL (≈ 0.164 mM) | solubility ([3]; 5% HPβCD in water (pH = 5.8)): 2.4 (pH = 5.8) mg/ml solution | solubility ([3]; 10% HPβCD in water (pH = 6.0)): 6.5 (pH = 6.0) mg/ml solution | solubility ([3]; 20% HPβCD in water (pH = 6.0)): 17 (pH = 6.0) mg/ml solution | solubility ([3]; 40% HPβCD in water (pH = 5.9)): 40 (pH = 5.9) mg/ml solution | solubility ([3]; Water (pH = 5.9)): 0.16 (pH = 5.9) mg/ml solution | loss of weight (TG) ([4]; 25° C. under dry nitrogen atmosphere, after 10 hours): around 0.6% | TG (% weight change) >80° C. ([4]; Form A as such): 7.1% | TG (% weight change) Up to 80° C. ([4]; Form A as such): 0.3% | TG (% weight change) >80° C. ([4]; after A/D hydratation test): 0.5% | TG (% weight change) Up to 80° C. ([4]; after A/D hydratation test): 5.4% | TG (% weight change) >80° C. ([4]; after ADS/DES): 4.0% | TG (% weight change) Up to 80° C. ([4]; after ADS/DES): 2.9% | hygroscopicity ([5]; 25° C.): not hygroscopic | loss of weight during the desorption cycle ([5]; 25° C.): 1.4% | obtained product after ADS/DES ([5]; 25° C.): mixture of ethanolate form and hydrated form | weight loss at the drying step ([5]; initial drying step (drying temperature 40° C. Form A, 30° C. Form K)): about 0.6% | form after the hydratation test [6]: transferred into a hydrated form | loss of weight at the end of the test [6]: 5.2% | unchanged Form A excreted in the urine ([7]; all dose levels): Less than 2% | time to reach steady-state plasma concentrations ([7]; oral, repeated dosing b.i.d. or t.i.d., healthy subjects): ≤ 3 days | dose-proportionality of Cmax (maximum conc.) ([7]; with respect to dose per intake): dose-proportional
